Data set [1] deals with Mus musculus. Put plainly: Analgesic activity in Mus musculus (mouse) assessed as writhing response at 100 mg/kg, ip relative to control. It counts as functional. To be noted: route intraperitoneal. Background: Writhing tests count abdominal constrictions after an irritant is injected.
Data set [2] relates to Mus musculus. Put plainly: Analgesic activity in Mus musculus (mouse) assessed as writhing response at 25 mg/kg, ip relative to control. The format is functional. To be noted: route intraperitoneal.
In data set [3] the target is 5-hydroxytryptamine receptor 1D (Homo sapiens, UniProt P28221). The data set can be described thus: Binding affinity to Homo sapiens (human) 5HT1D receptor by radioligand binding assay.
The subject of data set [4] is Mus musculus. Put plainly: Toxicity in Mus musculus (mouse) assessed as tail and hair erection at 50 mg/kg, ip. It counts as organism-based. Details: dose 50 mg/kg, route intraperitoneal. The conditions noted are these: in vivo.
Data set [5] concerns Mus musculus. The data set can be described thus: Toxicity in Mus musculus (mouse) assessed as skeletal muscle incoordination at 50 mg/kg, ip. It counts as organism-based, Muscle tissue. Set-up: dose 50 mg/kg, route intraperitoneal. The conditions noted are these: in vivo.
Data set [6] relates to Mus musculus. Put plainly: Toxicity in Mus musculus (mouse) assessed as protrusion of eyes at 50 mg/kg, ip. It counts as organism-based. Set-up: dose 50 mg/kg, route intraperitoneal. The conditions noted are these: in vivo.
The test system of data set [7] is Mus musculus. Put plainly: Toxicity in Mus musculus (mouse) assessed as difficulties in respiration at 50 mg/kg, ip. It counts as organism-based. Set-up: dose 50 mg/kg, route intraperitoneal. To be noted: in vivo.
Data set [8] concerns Mus musculus. Put plainly: Toxicity in Mus musculus (mouse) assessed as excitation at 50 mg/kg, ip. The format is organism-based. Set-up: dose 50 mg/kg, route intraperitoneal. To be noted: in vivo.
For data set [9], the system named is Mus musculus. Put plainly: Analgesic activity in Mus musculus (mouse) assessed as writhing response at 50 mg/kg, ip relative to control. It counts as functional. The conditions noted are these: route intraperitoneal.
Data set [10] deals with Mus musculus. The data set can be described thus: Toxicity in Mus musculus (mouse) assessed as epilepsy at 50 mg/kg, ip. It counts as organism-based. Details: dose 50 mg/kg, route intraperitoneal. To be noted: in vivo.
Data set [11] concerns the target 5-hydroxytryptamine receptor 1B (Homo sapiens, UniProt P28222). The data set can be described thus: Binding affinity to Homo sapiens (human) 5HT1B receptor by radioligand binding assay.
In data set [12] the test system is Mus musculus. The data set can be described thus: Toxicity in Mus musculus (mouse) assessed as irritability at 50 mg/kg, ip. To be noted: in vivo. The format is organism-based. Set-up: dose 50 mg/kg, route intraperitoneal.
Data set [13] concerns Mus musculus. Put plainly: Toxicity in Mus musculus (mouse) assessed as tremors at 50 mg/kg, ip. Details: dose 50 mg/kg, route intraperitoneal. It counts as organism-based. The conditions noted are these: in vivo.
Data set [14] concerns Mus musculus. The data set can be described thus: Toxicity in Mus musculus (mouse) assessed as muscle twitching at 50 mg/kg, ip. The format is organism-based, Muscle tissue. Details: dose 50 mg/kg, route intraperitoneal. To be noted: in vivo.
Data set [15] relates to Mus musculus. The data set can be described thus: Analgesic activity in Mus musculus (mouse) assessed as writhing response at 75 mg/kg, ip relative to control. It counts as functional. To be noted: route intraperitoneal.
The test system of data set [16] is Mus musculus. Put plainly: Toxicity in Mus musculus (mouse) assessed as tremors at 20 mg/kg, ip. The format is organism-based. Set-up: dose 20 mg/kg, route intraperitoneal. The conditions noted are these: in vivo.
In data set [17] the test system is Mus musculus. Put plainly: Toxicity in Mus musculus (mouse) assessed as protrusion of eyes at 20 mg/kg, ip. It counts as organism-based. Details: dose 20 mg/kg, route intraperitoneal. The conditions noted are these: in vivo.
The test system of data set [18] is Mus musculus. Put plainly: Analgesic activity in Mus musculus (mouse) assessed as writhing response at 20 mg/kg, ip relative to control. It counts as functional. To be noted: route intraperitoneal.
The test system of data set [19] is Mus musculus. Put plainly: Toxicity in Mus musculus (mouse) assessed as epilepsy at 20 mg/kg, ip. It counts as organism-based. Details: dose 20 mg/kg, route intraperitoneal. The conditions noted are these: in vivo.
Data set [20] deals with Mus musculus. The data set can be described thus: Toxicity in Mus musculus (mouse) assessed as difficulties in respiration at 20 mg/kg, ip. It counts as organism-based. Details: dose 20 mg/kg, route intraperitoneal. To be noted: in vivo.
Data set [21] has as its system Mus musculus. The data set can be described thus: Toxicity in Mus musculus (mouse) assessed as tail and hair erection at 20 mg/kg, ip. The format is organism-based. Set-up: dose 20 mg/kg, route intraperitoneal. The conditions noted are these: in vivo.
Data set [22] concerns Mus musculus. Put plainly: Toxicity in Mus musculus (mouse) assessed as excitation at 20 mg/kg, ip. It counts as organism-based. Details: dose 20 mg/kg, route intraperitoneal. The conditions noted are these: in vivo.
The subject of data set [23] is Mus musculus. The data set can be described thus: Toxicity in Mus musculus (mouse) assessed as muscle twitching at 20 mg/kg, ip. It counts as organism-based, Muscle tissue. Set-up: dose 20 mg/kg, route intraperitoneal. The conditions noted are these: in vivo.
Data set [24] deals with Mus musculus. The data set can be described thus: Toxicity in Mus musculus (mouse) assessed as irritability at 20 mg/kg, ip. The format is organism-based. Set-up: dose 20 mg/kg, route intraperitoneal. To be noted: in vivo.
In data set [25] the test system is Mus musculus. Put plainly: Toxicity in Mus musculus (mouse) assessed as skeletal muscle incoordination at 20 mg/kg, ip. It counts as organism-based, Muscle tissue. Details: dose 20 mg/kg, route intraperitoneal. The conditions noted are these: in vivo.

SMILES strings stand for the structures.

Consider 17 compounds from ChEMBL document CHEMBL3045296, “Synthesis of aryloxyalkylamines as h5-HT1B agonists with potential analgesic activity” (Med Chem Res, 2009).

Chain of 5-hydroxytryptamine receptor 1B (P28222 whole entry): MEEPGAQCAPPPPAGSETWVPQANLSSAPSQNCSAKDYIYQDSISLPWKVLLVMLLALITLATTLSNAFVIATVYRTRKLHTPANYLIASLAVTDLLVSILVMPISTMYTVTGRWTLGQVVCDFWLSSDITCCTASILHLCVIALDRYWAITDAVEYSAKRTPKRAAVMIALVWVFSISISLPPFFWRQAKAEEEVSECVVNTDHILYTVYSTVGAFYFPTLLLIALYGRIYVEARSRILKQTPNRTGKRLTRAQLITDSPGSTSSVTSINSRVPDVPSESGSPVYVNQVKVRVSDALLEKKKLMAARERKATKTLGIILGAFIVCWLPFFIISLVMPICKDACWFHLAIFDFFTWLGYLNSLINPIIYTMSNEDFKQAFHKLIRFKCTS
Chain of 5-hydroxytryptamine receptor 1D (P28221 whole entry): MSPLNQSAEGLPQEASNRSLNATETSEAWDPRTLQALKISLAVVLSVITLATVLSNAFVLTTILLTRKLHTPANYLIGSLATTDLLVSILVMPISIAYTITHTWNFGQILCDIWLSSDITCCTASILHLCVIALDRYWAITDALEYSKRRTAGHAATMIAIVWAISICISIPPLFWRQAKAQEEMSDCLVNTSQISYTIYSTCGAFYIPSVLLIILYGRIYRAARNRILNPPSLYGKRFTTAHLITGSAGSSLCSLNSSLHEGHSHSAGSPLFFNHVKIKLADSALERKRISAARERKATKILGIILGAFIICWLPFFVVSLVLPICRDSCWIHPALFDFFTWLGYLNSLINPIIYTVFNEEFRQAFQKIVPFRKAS

With `CC(=O)Oc1ccccc1C(=O)O` [ASPIRIN], in the data set with Mus musculus [1], the Activity is on record as 100%.
As for `CNC(C)COc1c(Br)cccc1Br.O=C(O)C(=O)O` (racemic), the Activity in the data set on Mus musculus [2] is 0%; in the data set with Mus musculus [4] it was “Toxic”; in the data set on Mus musculus [5] it was “Toxic”; in the data set with Mus musculus [6], “Toxic”; in the data set on Mus musculus [7], “Toxic”; with Mus musculus [8], “Toxic”. In addition, the Activity in the data set on Mus musculus [9] is reported as 75%; in the data set on Mus musculus [10] it was “Toxic”; in the data set on Mus musculus [12] it was “Toxic”; with Mus musculus [13], “Toxic”; with Mus musculus [14] it was “Toxic”; in the data set on Mus musculus [15], 100%. In addition, the Ki (usually the equilibrium dissociation constant of an inhibitor or competing ligand from its target) turned out to be 0.225 µM in data set [3] and 0.0715 µM in data set [11].
On to `CNCCOc1ccc(Cl)cc1Cl`, for which the Ki in data set [3] was found to be 0.975 µM; in data set [11], 2.75 µM.
Take `CNC(C)COc1ccc(Cl)cc1Cl` (racemic): the Ki in [3] was found to be 2.87 µM; in data set [11] it was 4.2 µM.
Turning to `CNCCOc1cccc(Cl)c1Cl`, the Ki in data set [3] was determined as 2.03 µM; in data set [11], 0.0364 µM.
On to `CN1CCN([C@H](COc2cccc(Cl)c2Cl)c2ccccc2)CC1`, for which the Ki in [3] turned out to be 5.46 µM; in data set [11] it was 0.912 µM.
In the case of `CNCCOc1c(Br)cccc1Br.O=C(O)C(=O)O`, the Activity with Mus musculus [2] is 25%; in the data set on Mus musculus [4], “Toxic”; in the data set on Mus musculus [5] it was “Toxic”; in the data set on Mus musculus [6] it was “Toxic”; with Mus musculus [7], “Toxic”; in the data set with Mus musculus [8] it was “Toxic”. The Activity was 62.5% with Mus musculus [9]; “Toxic” in the data set on Mus musculus [10]; “Toxic” with Mus musculus [12]; “Toxic” with Mus musculus [13]; “Toxic” in the data set with Mus musculus [14]; 100% with Mus musculus [15].
For the compound `CNC(C)COc1cc(Cl)ccc1Cl.O=C(O)C(=O)O` (racemic), the Activity result with Mus musculus [16] is listed as “Toxic”; in the data set with Mus musculus [17], “Toxic”; in the data set on Mus musculus [18] it was 66%; in the data set on Mus musculus [19] it was “Toxic”; in the data set on Mus musculus [20], “Toxic”; with Mus musculus [21], “Toxic”. In addition, the Activity result in the data set with Mus musculus [22], in the data set with Mus musculus [23], with Mus musculus [24] and with Mus musculus [25] was “Toxic” throughout. In addition, the Ki came out at 5.4 µM in [3] and 6.69 µM in data set [11].
With `CNC(C)COc1ccc(Br)cc1Br` (racemic), the results for the Ki in data set [3] and in [11] were 1.12 µM and 2.32 µM, respectively.
For the compound `CN1CCN(CCOc2ccc(Br)cc2Br)CC1`, the Ki in [3] is > 10 µM; in data set [11], 1.46 µM.
On the same counts, the results for `CNC(C)COc1cccc(Cl)c1Cl` (racemic) are 0.599 µM and 2.48 µM.
On the same counts, the results for `CNCCOc1cc(Cl)ccc1Cl` are 3.82 µM and 3.64 µM.
On the same counts, the results for `CNC(C)COc1cccc(Oc2ccccc2)c1` (racemic) are 0.393 µM and 0.752 µM.
For `CN[C@H](COc1cccc(Cl)c1Cl)c1ccccc1`, the affinity in data set [3] corresponds to a Ki of 7.79 µM.
Take `CNCCOc1ccc(Br)cc1Br`: the results for the Ki in data set [3] and in data set [11] were 1.24 µM and 1.25 µM, respectively.
For `CN1CCN([C@@H](COc2cccc(Cl)c2Cl)c2ccccc2)CC1`, the Ki in data set [3] is 1.49 µM; in data set [11], 0.833 µM.
For `CN[C@@H](COc1cccc(Cl)c1Cl)c1ccccc1` the same measures were 6.29 µM and > 10 µM.
